Patent publication US8124641B2, “Aminotetrahydroindazoloacetic acids” (Hoffmann-La Roche Inc., priority 2008, dated 2012)

Target: T1, human CRTH2 (Homo sapiens, UniProt Q9Y5Y4)
T1 construct: expressed in transfected cells
T1 sequence (Q9Y5Y4 1-395): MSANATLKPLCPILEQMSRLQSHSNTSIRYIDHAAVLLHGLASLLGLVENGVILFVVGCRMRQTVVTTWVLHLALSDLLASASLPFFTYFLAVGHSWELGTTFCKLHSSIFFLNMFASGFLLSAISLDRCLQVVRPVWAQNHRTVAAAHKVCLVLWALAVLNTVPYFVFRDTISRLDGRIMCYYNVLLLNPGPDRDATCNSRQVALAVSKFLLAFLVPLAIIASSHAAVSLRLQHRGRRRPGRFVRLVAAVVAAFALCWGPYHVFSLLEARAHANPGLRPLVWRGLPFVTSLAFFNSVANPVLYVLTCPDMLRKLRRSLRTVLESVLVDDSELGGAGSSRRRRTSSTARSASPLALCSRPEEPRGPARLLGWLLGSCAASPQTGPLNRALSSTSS
Test: Human CRTH2 Receptor Binding Assay (whole cell, [3H]ramatroban competition)
Conditions: CHO-K1 cells stably expressing human CRTH2 and G-alpha16; 20 nM [3H]ramatroban; 1 hour, room temperature
From the text: A whole cell receptor binding assay using [^3H]ramatroban as the competing radioactive ligand was employed to evaluate the compound binding activity to human CRTH2. The radioactive ligand [^3H]ramatroban was synthesized according to Sugimoto et. al. (Eur. J. Pharmacol. 524, 30-37, 2005) to a specific activity of 42 Ci/mmol.
A cell line stably expressing human CRTH2 was established by transfecting CHO-K1 cells with two mammalian expression vectors that harbored human CRTH2 and G-alpha16 cDNAs, respectively, using FuGene® 6 transfection reagent (from Roche). Stable clones expressing CRTH2 were selected by staining each clone with BM16 (BD Pharmingen™ from BD Biosciences, a division of Becton, Dickinson and Company), which is a rat monoclonal antibody to human CRTH2. The cells were maintained as monolayer cultures in Ham's F-12 medium containing 10% fetal bovine serum, 100 units/mL penicillin, 100 μg/mL streptomycin, 2 mM glutamine, 0.5 mg/mL G418 (geneticin) for CRTH2, and 0.2 mg/mL hygromycin-B (for G-alpha 16). For whole cell receptor binding assay, the monolayer cells were rinsed once with PBS (phosphate buffered saline), dissociated using ethylenediaminetetraacetate (Versene™ EDTA from Lonza Inc.), and suspended in PBS containing 10 mM MgCl2 and 0.06% BSA (bovine serum albumin) at 1.5×10^6 cells/mL.
The binding reactions (0.2 mL) were performed in 96-well plates at room temperature in PBS containing 1.5×10^5 cells, 10 mM MgCl2, 0.06% BSA, 20 nM [^3H]ramatroban, and test compound at various concentrations. After 1 hour of binding reactions, the cells were harvested on GF™/B filter microplates (microtiter plates with embedded glass fiber from PerkinElmer, Inc.) and washed 5 times with PBS using a Filtermate™ Harvester (a cell harvester that harvests and washes cells from microplates from PerkinElmer, Inc.). The radioactivities bound to the cells were determined using a microplate scintillation counter (TopCount® NXT, from PerkinElmer, Inc.) after adding 50 μL of Microscint™ 20 scintillation fluid (from PerkinElmer, Inc.) to each well of the filter plates. The radioactivity from non-specific binding was determined by replacing compound with 10 μM of 15(R)-15-methyl PGD2 (from Cayman Chemical Company) in the reaction mixtures. The radioactivity bound to the cells in the absence of compound (total binding) was determined by replacing compound with 0.25% of DMSO (dimethyl sulfoxide) in the reaction mixture. Specific binding data were obtained by subtracting the radioactivity of non-specific binding from each binding data.
The IC50 value is defined as the concentration of the tested compound that is required for 50% inhibition of total specific binding. In order to calculate the IC50 value, the percent inhibition data were determined for 7 concentrations for each compound. The percent inhibition for a compound at each concentration was calculated according to the following formula, [1−(specific binding in the presence of compound)/(total specific binding)]×100. The IC50 value was then obtained by fitting the percent inhibition data to a sigmoidal dose-response (4 parameter logistic) model in the XLfit® software Excel add-in program [from ID Business Solutions Ltd., model 205, where F(x)=(A+(B−A)/(1+((C/x)^D)))].

IC50 | Structure (SMILES)
6.2 nM | CN([C@@H]1CCCc2c1cnn2CC(=O)O)S(=O)(=O)c1cc(C(F)(F)F)cc(C2(C)CC2)c1 [Example 14-1a, ((R)-4-{Methyl-[3-(1-methyl-cyclopropyl)-5-trifluoromethyl-benzenesulfonyl]-amino}-4,5,6,7-tetrahydro-indazol-1-yl)-acetic acid]
12.3 nM | CCC1(c2cc(C(F)(F)F)cc(S(=O)(=O)N(C)[C@@H]3CCCc4c3cnn4CC(=O)O)c2)CC1 [Example 15-1a, ((R)-4-{[3-(1-Ethyl-cyclopropyl)-5-trifluoromethyl-benzenesulfonyl]-methyl-amino}-4,5,6,7-tetrahydro-indazol-1-yl)-acetic acid]
69.8 nM | C#Cc1cc(C(F)(F)F)cc(S(=O)(=O)NC2CCCc3c2cnn3CC(=O)O)c1 (stereo not drawn) [Example 16-1a, [4-(3-Ethynyl-5-trifluoromethyl-benzenesulfonylamino)-4,5,6,7-tetrahydro-indazol-1-yl]-acetic acid]
55.6 nM | CN([C@@H]1CCCc2c1cnn2CC(=O)O)S(=O)(=O)c1cc(C(F)(F)F)cc([Si](C)(C)C)c1 [Example 17-1a, {(R)-4-[Methyl-(3-trifluoromethyl-5-trimethylsilanyl-benzenesulfonyl)-amino]-4,5,6,7-tetrahydro-indazol-1-yl}-acetic acid]
28.6 nM | CN([C@@H]1CCCc2c1cnn2CC(=O)O)S(=O)(=O)c1cc(C2CCCC2)cc(C(F)(F)F)c1 [Example 18-1a, {(R)-4-[(3-Cyclopentyl-5-trifluoromethyl-benzenesulfonyl)-methyl-amino]-4,5,6,7-tetrahydro-indazol-1-yl}-acetic acid]
7 nM | CC(=O)c1cc(C(F)(F)F)cc(S(=O)(=O)N(C)[C@@H]2CCCc3c2cnn3CC(=O)O)c1 [Example 19-1a, {(R)-4-[(3-Acetyl-5-trifluoromethyl-benzenesulfonyl)-methyl-amino]-4,5,6,7-tetrahydro-indazol-1-yl}-acetic acid]
3.5 nM | CN([C@@H]1CCCc2c1cnn2CC(=O)O)S(=O)(=O)c1cc(C(C)(F)F)cc(C(F)(F)F)c1 [Example 20-1a, ((R)-4-{[3-(1,1-Difluoro-ethyl)-5-trifluoromethyl-benzenesulfonyl]-methyl-amino}-4,5,6,7-tetrahydro-indazol-1-yl)-acetic acid]
278 nM | CN([C@@H]1CCCc2c1cnn2C(C)(C)C(=O)O)S(=O)(=O)c1cc(C(F)(F)F)cc(C(F)(F)F)c1 [Example 21-1a, 2-{(R)-4-[(3,5-Bis-trifluoromethyl-benzenesulfonyl)-methyl-amino]-4,5,6,7-tetrahydro-indazol-1-yl}-2-methyl-propionic acid]
80.1 nM | CC(=O)Nc1cccc(S(=O)(=O)NC2CCCc3c2cnn3CC(=O)O)c1 (stereo not drawn) [Example 22-1a, [4-(3-Acetylamino-benzenesulfonylamino)-4,5,6,7-tetrahydro-indazol-1-yl]-acetic acid]
39.5 nM | CS(=O)(=O)Nc1cccc(S(=O)(=O)NC2CCCc3c2cnn3CC(=O)O)c1 (stereo not drawn) [Example 23-1a, [4-(3-Methanesulfonylamino-benzenesulfonylamino)-4,5,6,7-tetrahydro-indazol-1-yl]-acetic acid]
38.1 nM | CN([C@@H]1CCCc2c1cnn2CC(=O)O)S(=O)(=O)c1cc(N2CCCC2)cc(C(F)(F)F)c1 [Example 24-1a, {(R)-4-[Methyl-(3-pyrrolidin-1-yl-5-trifluoromethyl-benzenesulfonyl)-amino]-4,5,6,7-tetrahydro-indazol-1-yl}-acetic acid]
45.7 nM | CC(C)N(C)c1cc(C(F)(F)F)cc(S(=O)(=O)N(C)[C@@H]2CCCc3c2cnn3CC(=O)O)c1 [Example 24-2a, ((R)-4-{[3-(Isopropyl-methyl-amino)-5-trifluoromethyl-benzenesulfonyl]-methyl-amino}-4,5,6,7-tetrahydro-indazol-1-yl)-acetic acid]
62.2 nM | CN(C)c1cc(C(F)(F)F)cc(S(=O)(=O)N(C)[C@@H]2CCCc3c2cnn3CC(=O)O)c1 [Example 24-3a, {(R)-4-[(3-Dimethylamino-5-trifluoromethyl-benzenesulfonyl)-methyl-amino]-4,5,6,7-tetrahydro-indazol-1-yl}-acetic acid]
146 nM | CCN(CC)c1cc(C(F)(F)F)cc(S(=O)(=O)N(C)[C@@H]2CCCc3c2cnn3CC(=O)O)c1 [Example 24-4a, {(R)-4-[(3-Diethylamino-5-trifluoromethyl-benzenesulfonyl)-methyl-amino]-4,5,6,7-tetrahydro-indazol-1-yl}-acetic acid]
22 nM | O=C(O)Cn1ncc2c1CCCC2NS(=O)(=O)c1cc(C2CC2)cc(C(F)(F)F)c1 (stereo not drawn) [Example 25-1a, [4-(3-Cyclopropyl-5-trifluoromethyl-benzenesulfonylamino)-4,5,6,7-tetrahydro-indazol-1-yl]-acetic acid]
142 nM | Cc1cc(C(F)(F)F)cc(S(=O)(=O)NC2CCCc3c2cnn3CC(=O)O)c1 (stereo not drawn) [Example 25-2a, [4-(3-Methyl-5-trifluoromethyl-benzenesulfonylamino)-4,5,6,7-tetrahydro-indazol-1-yl]-acetic acid]
40.4 nM | C=C(C)c1cc(C(F)(F)F)cc(S(=O)(=O)NC2CCCc3c2cnn3CC(=O)O)c1 (stereo not drawn) [Example 25-3a, [4-(3-Isopropenyl-5-trifluoromethyl-benzenesulfonylamino)-4,5,6,7-tetrahydro-indazol-1-yl]-acetic acid]
16.3 nM | CN([C@@H]1CCCc2c1cnn2CC(=O)O)S(=O)(=O)c1cc(C2CC2)cc(C(F)(F)F)c1 [Example 26-1a, {(R)-4-[(3-Cyclopropyl-5-trifluoromethyl-benzenesulfonyl)-methyl-amino]-4,5,6,7-tetrahydro-indazol-1-yl}-acetic acid]
